Data set [1] can be described thus: Rat model of nasopharyngitis induced by formalin (nasal mucosa changes, cell elements in nasal lavage). The class given is in vivo. The note with it: Wistar rats, 18 mg/kg for 3 days; for Mucous membrane of nasal passages: Without changes (number of animals): number of animals out of n = 10, control 0 of 20; for Mucous membrane of nasal passages: Discharge mucus from the nasal passages (number of animals): number of animals out of n = 10, control 20 of 20. On the procedure: Nasopharyngitis was induced by intranasal administration of formalin to each nasal passage of rats.
The administration of formalin to the nasal passages of rats leads to the dissemination of inflammation to adjacent tissues, resulting in a clinical pattern similar to the symptoms of nasopharyngitis in a human.
After an acclimatization period, the following groups were formed: • intact animals administered intragastrically a physiological solution in an amount of 0.2 ml, without induction of nasopharyngitis; • a control group consisted of animals administered intragastrically a physiological solution in an amount of 0.2 ml for 3 days after induction of nasopharyngitis; and • animals administered the studied compounds at a dose of 18 mg/kg for 3 days after induction of nasopharyngitis.
Clinical observation of each animal was performed every day at least twice daily.
The caused pathology was characterized by hyperplasia, increased number of caliciform cells, pronounced infiltration of mononuclear cells and leucocytes, and mucus hyperproduction by submucosal glands.
After euthanasia, the inflammation pattern in the nasal passages and throat was studied in each group of animals. The nasal passages were washed with 5 mL of physiological solution and the score of cell elements were counted in 1 μL.

Data set [2] relates to human virus hRSV. Nature of the data set: Antiviral activity against mouse-adapted RS virus (body weight; viral titer in lungs titrated in Hep-2 cells). The class given is in vivo, mice. The note with it: for hRSV in the lungs of mice, Day 5, lg / hRSV in the lungs of mice, Day 7, lg: 10% lung suspension titrated in Hep-2 cells (TCID); for hRSV in the lungs of mice, Day 5, lg / Body weight of the mice on day 5 after infection with hRSV (M ± SD) / hRSV in the lungs of mice, Day 7, lg / Body weight of the mice on day 7 after infection with hRSV (M ± SD): compounds 30 mg/kg, Ribavirin 40 mg/kg; for Body weight of the mice on day 5 after infection with hRSV (M ± SD) / Body weight of the mice on day 7 after infection with hRSV (M ± SD): orally once daily for 5 days, n = 6; for log reduction at 30 mg/kg: human respiratory syncytial virus, HEp-2, po. On the procedure: Antiviral effectiveness of the chemical compounds against RSV in an experimental murine model in vivo was determined for human virus hRSV that was previously adapted to the growth in mouse lungs. The animals were infected with the virus at a dose of 0.5 log TCID50 intranasally under brief ether anesthesia in a volume of 0.05 ml/mouse. The studied compounds were administered orally once daily for 5 days according to the treatment regimen at a dose of 30 mg/kg. The first administration was made 24 hours after infection. Normal saline solution was administered to mice as placebo. Intact animals served as a negative control and were hold in a separate room under the same conditions as the experimental animals. Each experimental group comprised 12 animals.
The antiviral activity of the studied compounds was determined by the efficiency in the prevention of weight loss and by suppression of the reproduction of hRSV in the mouse lungs by measuring a viral titer in the experimental groups relative to the control on days 5 and 7 after infection.
In addition, the therapeutic action of the compounds of general formula I was determined by their ability to suppress the reproduction of hRSV in the mouse lungs on days 5 and 7 after infection. The viral titer was determined by the titration of a 10% lung suspension in Hep-2 cell culture. The result was registered 2 days after the incubation at 37° C. by TCID.

Data set [3] concerns human respiratory syncytial virus (strain A2). Nature of the data set: Antiviral activity against RS virus in a murine model of suppressed immune system (lung edema). The class given is in vivo. The note with it: Balb/c mice, cyclophosphan-suppressed, RS-virus pneumonia; 30 mg/kg once daily for 5 days; M ± SD, n = 5; scores from possible 4. On the procedure: Antiviral activity of the chemical compounds against human respiratory syncytial virus (strain A2, an infectious titer of 5×10^6 TCID50/mL) was assessed in a Balb/c murine model of viral pneumonia. The virus was inoculated to animals intranasally in a volume of 50 μL under brief ether anesthesia. The immune response in animals to RS virus was suppressed by intraperitoneal administration of cyclophosphan at a dose of 100 mg/kg 5 days before infection. The studied compounds were administered according to the treatment regimen once daily at a dose of 30 mg/kg for 5 days, starting 24 hours after infection. The activity of the compounds was determined by a reduction in edema of the lung infected with respiratory syncytial virus, compared to the control, on day 5 after infection.

Data set [4] relates to herpes simplex virus belonging to antigenic type 2. The experiment in a line: Murine model of experimental herpetic meningoencephalitis (mortality). The class given is in vivo, white outbred mice. The following applies: Mus musculus, po, 336 h. On the procedure: In the study, herpes simplex virus belonging to antigenic type 2 was used. White outbred mice weighing 7-8 g were infected i/c (intracerebrally) in a volume of 0.05 ml/mouse comprising a dose of 10LD50. The infectious dose of the virus that caused 100% mortality in mice was 10LD50. Each experimental group comprised 20 mice. Intact animals served as control and were hold in a separate room under the same conditions as the experimental animals. The antiviral activity of the compounds of general formula I was studied by oral administration of the compounds to infected mice once daily at a dose of 30 mg/kg/mouse 24, 48, 72, 96, and 120 hours after infection of the animals with the virus. The mice of the control group were administered placebo (0.2 mL of physiological solution) under the same conditions. The animals were monitored for 14 days after infection by registration the mouse death in the groups.
Each animal was subjected to once-daily observation. The observation included the assessment of general behavior and body condition of animals. The animals were handled according to the International Standards.
The activity of the compounds was evaluated by comparing mortality rates in the groups of animals administered a preparation and placebo.

Data set [5] in a line: Solubility in water noted for the isolated product. The class given is physicochemical. The note with it: qualitative remark on the isolated product.
In data set [6] the test system is Staphylococcus aureus. The experiment in a line: Murine model of staphylococcal pneumonia (bacterial growth from lung imprints). The class given is in vivo, outbred mice. The note with it: reference drug, intravenously, single dose of 20 mg/kg; lung imprints; control 82.5. On the procedure:
The efficiency of the compounds was evaluated in outbred mice (females) infected with Staphylococcus aureus (mouse-adapted strain). The administration of the compounds was started 5 days before infection, orally at doses of 15 and 30 mg/kg in a volume of 0.2 mL. On day 5, the mice were infected intranasally under brief ether anesthesia by administration of Staphylococcus aureus at a dose of 10^9 CFU in a volume of 0.05 mL. One hour after infection, the administration of the compounds to the mice was continued at the above-indicated doses for additional 2 days. The reference drug was ampicillin administered intravenously at a single dose of 20 mg/kg. The control was mice infected with Staphylococcus aureus intranasally and treated with PBS. The mice were sacrificed two days after, the breast was dissected, and lung imprints were made in Petri dishes with Columbia agar. After incubation for 24 hours at 30° C., the presence (or absence) of Staphylococcus aureus bacterial growth was fixed in comparison with the control. The intensity of bacterial growth was evaluated in scores and expressed in %.

Data set [7] deals with Coxsackie A2 virus (strain HCXV A2). The experiment in a line: Antiviral activity against Coxsackie virus in vivo (mortality and life expectancy of infected mice). The note with it: for inhibition in vivo at 30 mg/kg / mortality at 30 mg/kg: Mus musculus, po; for inhibition in vivo at 30 mg/kg: 168 h, vs virus control, read-out: Protective index (%); for inhibition in vivo at 30 mg/kg / Average life expectancy (days), Compared with control / Average life expectancy (days), Relative: 30 mg/kg orally once daily for 7 days; for mortality at 30 mg/kg: 360 h, read-out: Total mortality, %; for Average life expectancy (days), Compared with control: difference vs virus control; for Average life expectancy (days), Relative: mice infected with 10LD50 HCXV A2. As for the experimental part:
In the study a trypsin-dependent strain HCXV A2 was used, previously adapted and causing death in mice from Coxsackie virus infection.
The experiment was carried out in white mice weighing 6 to 7 g. The animals were infected intramuscularly with a dose of 0.1 mL/mouse. The used infectious dose causing mortality in mice was 10LD50.
The ability of compounds to provide a therapeutic effect was determined by the mortality rate of HCXV A2 virus-infected mice in the experimental group relative to the group of untreated animals.
The studied compounds and placebo were administered orally according to the treatment regimen. Normal saline solution was administered to mice as placebo. Intact animals served as a negative control and were hold in a separate room under the same conditions as the experimental animals.
For the experiment, groups were formed with 14-15 animals each. Compounds were administered at a dose of 30 mg/kg of body weight. The studied compounds were administered orally once daily for 7 days (first administration was made 24 hours after infection). The animals were monitored for 15 days during which the animals were weighed and the mortality rate was registered every day.

[8] abbreviates: 120 h, read-out: Suppression of the reproduction of hRSV in the lungs of mice, Day 5, Δlg.
The mark [9] stands for this setting: 168 h, read-out: Suppression of the reproduction of hRSV in the lungs of mice, Day 7, Δlg.

From patent US20170183318A1, “AMIDE COMPOUNDS, METHODS FOR PREPARATION, AND USE THEREOF AS AGENTS FOR THE TREATMENT AND PREVENTION OF DISEASES CAUSED BY RNA- AND/OR DNA-CONTAINING VIRUSES, AND CONCOMITANT DISEASES” (OBSCHESTVO S OGRANICHENNOI OTVETSTVENNOSTIYU …, priority 2014, published 2017) come the findings set out here.

The term mortality denotes the percentage killed.

Where two headings read alike, the source gives them in different places. Starred links: 1 amine or outer side, 2 acyl side, 3 side chain; linkers in the order of their positions; H or OH if unused. Non-standard residues stand in square brackets, D forms with d. Residues, ends and D or L forms follow the SMILES beside them. ξ: configuration not given here. Glutaryl = O=C(CCCC(=O)[*:2])[*:1]; ξH = NC(Cc1c[nH]cn1)C(=O)O

In the case of `O=C(O)CCCC(=O)NCCC1CCCNC1` (stereo not shown) [Compound 5], in data set [1], the “Mucous membrane of nasal passages: Without changes (number of animals)” value stood at 5 and the “Mucous membrane of nasal passages: Discharge mucus from the nasal passages (number of animals)” value was determined as 5. Besides, in data set [2], the “hRSV in the lungs of mice, Day 5, lg” value is on record as 2.17 ± 0.37 lg; the “Body weight of the mice on day 5 after infection with hRSV (M ± SD)” value worked out at 16.02 ± 0.16; the “hRSV in the lungs of mice, Day 7, lg” value amounted to 0.88 ± 0.31 lg; the “Body weight of the mice on day 7 after infection with hRSV (M ± SD)” value was found to be 17.78 ± 0.26. For the same compound, the log reduction at 30 mg/kg in data set [2] (setting [8]) was 2.43 ± 0.37. The log reduction at 30 mg/kg in data set [2] (setting [9]) was 2.93 ± 0.31. Also, the “Degree of lung edema on day 5 after infection, score” value in data set [3] was 1.10 ± 0.19 score. In data set [4], this compound displayed a mortality at 30 mg/kg of 35%.
As for `O=C(O)CCCNC(=O)CCc1cnc[nH]1` [Compound 68], in data set [1], the “Mucous membrane of nasal passages: Without changes (number of animals)” value was determined as 3 and the “Mucous membrane of nasal passages: Discharge mucus from the nasal passages (number of animals)” value amounted to 7. Also, the Solubility in water result in data set [5] is recorded as “freely soluble in water”. In data set [4], this compound yielded a mortality at 30 mg/kg of 30%.
As for `CC1(C)S[C@@H]2[C@H](NC(=O)[C@H](N)c3ccccc3)C(=O)N2[C@H]1C(=O)O` [Ampicillin, ampicillin, reference compound], the “Bacterial growth, in %” value in data set [6] is listed as 25 (sporadic colonies (up to 10)).
As for `O=C(O)CCC(O)C(=O)NCCc1cnc[nH]1` (stereo not shown) [Compound 67], in data set [7], the inhibition in vivo at 30 mg/kg amounted to 50%; the mortality at 30 mg/kg is 35.7%; the “Average life expectancy (days), Compared with control” value is “+16.2 days”; the “Average life expectancy (days), Relative” value was found to be 27.0 days. Further, the Solubility in water entry in data set [5] was “freely soluble in water”.
On to `NS(=O)(=O)CCC(=O)NCCc1c[nH]cn1` [Compound 145], for which, in data set [5], the Solubility in water entry is listed as “freely soluble in water”.
As to `CC(C)(CCC(=O)O)C(=O)NCCc1cnc[nH]1` [Compound 45], the Solubility in water result in data set [5] is “freely soluble in water”.
Consider `COC(=O)C(CO)NC(=O)C(Cc1cnc[nH]1)NC(=O)CCCC(=O)O` (stereo not drawn) [Compound 149] (Glutaryl-His-Ser-OMe; configuration not given here), for which, in data set [1], the “Mucous membrane of nasal passages: Without changes (number of animals)” value came out at 5 and the “Mucous membrane of nasal passages: Discharge mucus from the nasal passages (number of animals)” value worked out at 5. Also, in data set [2], the “hRSV in the lungs of mice, Day 5, lg” value stood at 2.6 ± 0.1 lg; the “Body weight of the mice on day 5 after infection with hRSV (M ± SD)” value turned out to be 15.44 ± 0.31; the “hRSV in the lungs of mice, Day 7, lg” value is on record as 2.3 ± 0.4 lg; the “Body weight of the mice on day 7 after infection with hRSV (M ± SD)” value amounted to 17.32 ± 0.59. Also, the log reduction at 30 mg/kg in data set [2] (setting [8]) amounted to 1.9 ± 0.1. For the same compound, in data set [2] (setting [9]), the log reduction at 30 mg/kg was 1.4 ± 0.4. For the same compound, in data set [7], the inhibition in vivo at 30 mg/kg is 27.2%; the mortality at 30 mg/kg came out at 53.3%; the “Average life expectancy (days), Compared with control” value is “+8.9 days”; the “Average life expectancy (days), Relative” value amounted to 19.6 days. The compound further had a mortality at 30 mg/kg in data set [4] of 25%.
In the case of `COC(=O)CNC(=O)C(Cc1c[nH]cn1)NC(=O)CCCC(=O)O` (stereo not shown) [Compound 193] (Glutaryl-[ξH]-Gly-OMe), in data set [1], the “Mucous membrane of nasal passages: Without changes (number of animals)” value is 6 and the “Mucous membrane of nasal passages: Discharge mucus from the nasal passages (number of animals)” value was 4. Further, in data set [7], the inhibition in vivo at 30 mg/kg amounted to 45.3%; the mortality at 30 mg/kg was determined as 40.1%; the “Average life expectancy (days), Compared with control” value is “+14.2 days”; the “Average life expectancy (days), Relative” value stood at 24.9 days. The “Degree of lung edema on day 5 after infection, score” value in data set [3] is given as 0.80 ± 0.17 score. Besides, the mortality at 30 mg/kg in data set [4] stood at 25%.
